According to paper PMC7029871, “Development and validation of a sensitive LC-MS/MS method for the quantitation of IMB-YH-4py5-2H, an antituberculosis candidate, and its application to the pharmacokinetic study” (PLoS ONE, 2020):
Entries after “also recorded” stand apart in the source; their conditions may differ.

Experiments:
[1] = target: T1, CYP2B6 (Homo sapiens, UniProt P20813); assay: Metabolism by recombinant human P450 enzyme; type: in vitro ADME; conditions: recombinant CYP2B6 0.05 nmol/mL, 1 μM, 30 min
T1 construct: purchased Corning (Woburn, MA, USA)
T1 sequence (P20813 1-491): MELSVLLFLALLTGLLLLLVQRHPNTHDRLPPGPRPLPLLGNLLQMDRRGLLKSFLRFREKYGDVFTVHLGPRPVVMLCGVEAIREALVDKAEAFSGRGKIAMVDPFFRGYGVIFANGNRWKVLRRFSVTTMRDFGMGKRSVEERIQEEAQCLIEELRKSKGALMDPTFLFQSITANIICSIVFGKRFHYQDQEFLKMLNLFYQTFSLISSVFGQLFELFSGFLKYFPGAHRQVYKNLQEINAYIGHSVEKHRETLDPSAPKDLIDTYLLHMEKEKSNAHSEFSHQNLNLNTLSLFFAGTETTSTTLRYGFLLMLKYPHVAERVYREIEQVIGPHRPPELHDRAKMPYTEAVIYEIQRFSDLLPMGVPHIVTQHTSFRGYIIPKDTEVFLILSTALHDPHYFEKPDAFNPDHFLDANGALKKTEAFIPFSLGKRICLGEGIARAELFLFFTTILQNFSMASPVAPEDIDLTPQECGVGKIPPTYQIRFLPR
Procedure: In addition, to characterize the enzymes that may be involved in microsomal metabolism, IMB-YH-4py5-2H was incubated at 37°C for 30 min with different recombinant human P450 enzymes, i.e., CYP1A2, CYP2A6, CYP2B6, CYP2C8, CYP2C9, CYP2C19, CYP2D6, CYP2E1, CYP3A4 and CYP3A5. The incubation system included CYP isoenzyme at a final concentration of 0.05 nmol/mL, 100 mM PBS (pH 7.4) or 100 mmol/L Tris buffer (pH 7.5, Tris buffer was used in the CYP2C9 and CYP2A6 reaction systems and PBS was used for the other enzymes), NADPH regeneration system, and 1 μM IMB-YH-4py5-2H.
After incubation, the samples were processed as described in “Sample processing”. All experiments were performed in triplicate. The concentration of IMB-YH-4py5-2H was measured using LC-MS/MS analysis.

[2] = compared with YH-8; method and reference not given; cited from earlier work
[3] = test system: intracellular M. tuberculosis H37Rv; assay: Intracellular activity assay in infected macrophages; type: cell-based, Mycobacterium tuberculosis; conditions: for Log10CFU: three-day incubation, infected J744 macrophages, untreated 6.47±0.04
[4] = extracellular concentration of 2 μg/mL

For `CN(C)C(=O)/C=C/C(=O)c1ccc(-c2ccncc2)cc1.Cl` [IMB-YH-4py5-2H, (E)-N,N-dimethyl-4-oxo-4-(4-(pyridin-4-yl)phenyl)but-2-enamide hydrochloride], the “metabolism by CYP isozyme” value [1] is given as “high metabolic activity”, the water solubility [2] is given as “better water solubility; also recorded: improved water solubility” and the Log10CFU ([3]; 0.5 μg/mL) is given as 6.44±0.02 Log10CFU. For the same molecule, the Log10CFU ([3]; 1 μg/mL) was 6.40±0.05 Log10CFU, the Log10CFU ([3]; 2 μg/mL) was 6.02±0.11 Log10CFU and the “bacterial density reduction on intracellular M. tuberculosis” value [3, 4] was about 70%. The “reduction on intracellular M. tuberculosis” value [3, 4] was 0.45 log10CFU.
